Experimental findings from article PMC3927474, “Whole body synthesis rates of DHA from α-linolenic acid are greater than brain DHA accretion and uptake rates in adult rats” (Journal of Lipid Research, 2014) are described below.

The nature of the data set: Balance study: n-3 and n-6 PUFA balance (intake, excretion, accretion, metabolic consumption). Particulars: 24 h feces at 8 weeks postweaning, percentage of intake. Format: in vivo, rat. As for the experimental part: All procedures were performed in accordance with the policies set out by the Canadian Council on Animal Care and were approved by the Animal Ethics Committee at the University of Toronto. Three Long Evans dams each with 18-day-old male Long Evans pups were ordered from Charles River Laboratories (St. Constant, QC, Canada). Pups were nonlittermates and each dam was housed with pups. Upon arrival, dams were allocated to one of the three diets (described below). When the pups were 21 days old, two pups from each dam were euthanized by high-energy head-focused microwave fixation (4.5 kW for 0.9 s). Brains were removed immediately and stored at -80°C until lipid analysis. Bodies were also stored at -80°C immediately after euthanization until analysis. The brains and bodies of these pups were used to determine the PUFA content of the rats at weaning (i.e., baseline PUFA content). […] For the balance study, the rats were weighed, food intake was determined, and uneaten food was replaced with fresh food on a weekly basis. Rats were euthanized by CO2 asphyxiation. Brains were removed and dissected sagittally. Carcasses and one half brain per rat were stored immediately at -80°C (to be later analyzed for lipid content). […] For the steady-state infusion study and the brain DHA uptake study, a jugular vein catheter was surgically implanted into the rats. […] Carcasses were thawed overnight in a refrigerator at 3°C, cut into pieces, and passed through a #12 hand grinder. After the whole body had passed through the grinder once, the homogenate was mixed together by hand and passed at least one more time through the grinder until the mixture was sufficiently homogeneous. Due to the small size of the pups all of the 21-day-old pup bodies were passed through the grinder together. […] New chloroform was added to the remaining aqueous phase, the mixture was once again centrifuged, and the chloroform layer was extracted and added to the previously extracted chloroform layer. […] One hemisphere was thawed briefly and dissected over ice to separate the brainstem, cerebellum, cortex, hippocampus, striatum, and the rest of the brain. […] The homogenizer was then washed with methanol, which was then transferred to the test tube containing the homogenized brain and KCl. […] The chloroform layer was extracted and new chloroform was added to the aqueous phase. […] At 8 weeks postweaning all the feces produced by a rat in 24 h were collected. […] Mean PUFA excretion (percentage of intake) was determined and applied to all animals to determine PUFA excretion. […] Nu-Check Prep, Elysian, MN) was added to the TLE. […] Samples were injected in […] mode. The injector and detector ports were set at 250°C. […] The carrier gas was helium, set to a constant flow rate of 0.7 ml/min. Peaks were identified by retention times of authentic FAME standards (Nu-Chek Prep). […] The concentrations were expressed on a per gram basis then multiplied by total weight of the tissue to determine the total amount of each fatty acid in the tissue.

Turning to `CCCCC/C=C\C/C=C\CCCCCCCC(=O)O` [LNA, linoleic acid], the “Dietary PUFA excreted in the feces” value was 0.5 ± 0.05%.
